In US4782135A (priority 1983, dated 1988):
Where two headings read alike, the source gives them in different places.

Assays:
[1] = test system: herpes simplex virus (HSV) type 1; format: cell-based, herpes simplex virus type 1
[2] = test system: herpes simplex virus (HSV) type 2; format: cell-based, herpes simplex virus type 2
[3] = test system: L1210 mouse leukemia cells; experiment: L1210 tube dilution assay; format: cell-based; settings: for ID50: concentration to inhibit L1210 cell growth by 50 percent; for ID90: concentration to inhibit L1210 cell growth by 90 percent
Excerpt: The L1210 tube dilution assay is described in detail in a publication by L. H. Li, et al., Cancer Research 39: 4816 (1979).

[4] = test system: P388 leukemia; experiment: In vivo P388 mouse leukemia test; parameters: species or system mice
Excerpt: The P388 mouse leukemia test is described in detail in a publication by G. L. Neil, et. al., Cancer Treatment Reports 63, 1971-1978 (1979).
^a Schedule of Injection: daily intraperitoneal injection for 9 days
following tumor implantation.
^b Median survival time of control animals = 10.3 days.
^a Schedule of injection: Intraperitoneal injection on Day 1, 5, and
9, following Tumor inoculation.
^b Median survival time of Control (no drug) animals: 10.2 days.

[5] = test system: Vero cells
[6] = test system: ML cells
[7] = test system: coxsackie (COX) A21; format: cell-based, coxsackie virus
[8] = for Solubility in organic solvents: methanol, ethanol, isopropanol, dioxane, ethyl acetate, and chloroform
[9] = test system: equine rhinovirus (ER); format: cell-based
[10] = 63 μg/kg/injection, daily i.p. for 9 days
[11] = 63 μg/kg/injection, daily i.p. for 9 days, control 10.3 days
[12] = 125 μg/kg/injection, daily i.p. for 9 days
[13] = 125 μg/kg/injection, daily i.p. for 9 days, control 10.3 days
[14] = 250 μg/kg/injection, daily i.p. for 9 days
[15] = 250 μg/kg/injection, daily i.p. for 9 days, control 10.3 days
[16] = 250 μg/kg/injection, i.p. on Day 1, 5 and 9
[17] = 250 μg/kg/injection, i.p. on Day 1, 5 and 9, control 10.2 days
[18] = 500 μg/kg/injection, daily i.p. for 9 days
[19] = 500 μg/kg/injection, i.p. on Day 1, 5 and 9
[20] = 500 μg/kg/injection, i.p. on Day 1, 5 and 9, control 10.2 days
[21] = 1000 μg/kg/injection, daily i.p. for 9 days
[22] = 1000 μg/kg/injection, i.p. on Day 1, 5 and 9
[23] = 1000 μg/kg/injection, i.p. on Day 1, 5 and 9, control 10.2 days
[24] = 2000 μg/kg/injection, daily i.p. for 9 days
[25] = 2000 μg/kg/injection, i.p. on Day 1, 5 and 9
[26] = 4000 μg/kg/injection, i.p. on Day 1, 5 and 9
[27] = 8000 μg/kg/injection, i.p. on Day 1, 5 and 9
[28] = uninfected Vero cells, 50% cell destruction, overnight incubation
[29] = uninfected ML cells, 50% cell destruction, overnight incubation
[30] = ML cells infected with coxsackie A21
[31] = ML cells infected with equine rhinovirus
[32] = 30 μg/kg/injection, i.p. on Day 1, 5 and 9
[33] = 60 μg/kg/injection, i.p. on Day 1, 5 and 9
[34] = 120 μg/kg/injection, i.p. on Day 1, 5 and 9

## didemnin A
[1]; Vero cells
  Ratio (cytotoxic concentration ÷ antiviral concentration), HSV-1 virus: 17
[1]; Vero cells infected with HSV-1
  ID50 Antiviral-HSV-1 virus: 3 µg/mL
[2]; Vero cells
  Ratio (cytotoxic concentration ÷ antiviral concentration), HSV-2 virus: 33
[2]; Vero cells infected with HSV-2
  ID50 Antiviral-HSV-2 virus: 1.5 µg/mL
[3]
  ID50: 0.019 µg/mL
  ID90: 0.058 µg/mL
  Inhibition of growth of L1210 mouse leukemia cells in vitro (words): inhibit the growth
[4]; [10]
  T/C: 104%
  Weight Change: +0.9 g
[4]; [11]
  Median Survival Time: 10.7 days
[4]; [12]
  T/C: 115%
  Weight Change: +1.4 g
[4]; [13]
  Median Survival Time: 11.9 days
[4]; [14]
  T/C: 119%
  Weight Change: +1.0 g
[4]; [15]
  Median Survival Time: 12.2 days
[4]; [16]
  T/C: 109%
  Weight Change: +1.7 g
[4]; [17]
  Median Survival Time: 11.1 days
[4]; [18]
  T/C: 129%
  Weight Change: +0.9 g
[4]; 500 μg/kg/injection, daily i.p. for 9 days, control 10.3 days
  Median Survival Time: 13.2 days
[4]; [19]
  T/C: 118%
  Weight Change: +1.6 g
[4]; [20]
  Median Survival Time: 12.1 days
[4]; [21]
  T/C: 158%
  Weight Change: +0.3 g
[4]; 1000 μg/kg/injection, daily i.p. for 9 days, control 10.3 days
  Median Survival Time: 16.2 days
[4]; [22]
  T/C: 118%
  Weight Change: +1.8 g
[4]; [23]
  Median Survival Time: 12.1 days
[4]; [24]
  T/C: 155%
  Weight Change: -0.2 g
[4]; 2000 μg/kg/injection, daily i.p. for 9 days, control 10.3 days
  Median Survival Time: 16.0 days
[4]; [25]
  T/C: 121%
  Weight Change: +2.0 g
[4]; 2000 μg/kg/injection, i.p. on Day 1, 5 and 9, control 10.2 days
  Median Survival Time: 12.4 days
[4]; [26]
  T/C: 130%
  Weight Change: +1.3 g
[4]; 4000 μg/kg/injection, i.p. on Day 1, 5 and 9, control 10.2 days
  Median Survival Time: 13.3 days
[4]; [27]
  T/C: 140%
  Weight Change: +0.8 g
[4]; 8000 μg/kg/injection, i.p. on Day 1, 5 and 9, control 10.2 days
  Median Survival Time: 14.3 days
[4]
  Activity in vivo against P388 leukemia in mice: active
[5]; [28]
  ID50 Toxicity-Vero cells: 50 µg/mL
[6]; [29]
  ID50 Toxicity-ML cells: 25 µg/mL
[7]; ML cells
  Ratio (cytotoxic concentration ÷ antiviral concentration), cox virus: 17
[7]; [30]
  ID50 Antiviral-cox virus: 1.5 µg/mL
[8]
  Solubility in organic solvents: soluble
  Solubility in toluene: sparingly soluble
  Solubility in water: insoluble
[9]; ML cells
  Ratio (cytotoxic concentration ÷ antiviral concentration), ER virus: 17
[9]; [31]
  ID50 Antiviral-ER virus: 1.5 µg/mL

## didemnin B
[1]; Vero cells
  Ratio (cytotoxic concentration ÷ antiviral concentration), HSV-1 virus: 8
[1]; Vero cells infected with HSV-1
  ID50 Antiviral-HSV-1 virus: 1.5 µg/mL
[2]; Vero cells
  Ratio (cytotoxic concentration ÷ antiviral concentration), HSV-2 virus: 8
[2]; Vero cells infected with HSV-2
  ID50 Antiviral-HSV-2 virus: 1.5 µg/mL
[3]
  ID50: 0.0018 µg/mL
  ID90: 0.0059 µg/mL
  Inhibition of growth of L1210 mouse leukemia cells in vitro (words): inhibit the growth
[3]; listed as didemnin B
  Inhibition of growth of L1210 mouse leukemia cells in vitro (words): inhibit
[4]; [32]
  T/C: 125%
  Weight Change: +1.6 g
[4]; 30 μg/kg/injection, i.p. on Day 1, 5 and 9, control 10.2 days
  Median Survival Time: 12.8 days
[4]; [33]
  T/C: 140%
  Weight Change: +1.2 g
[4]; 60 μg/kg/injection, i.p. on Day 1, 5 and 9, control 10.2 days
  Median Survival Time: 14.3 days
[4]; [10]
  T/C: 143%
  Weight Change: +0.1 g
[4]; [11]
  Median Survival Time: 14.8 days
[4]; [34]
  T/C: 147%
  Weight Change: +0.2 g
[4]; 120 μg/kg/injection, i.p. on Day 1, 5 and 9, control 10.2 days
  Median Survival Time: 15.0 days
[4]; [12]
  T/C: 136%
  Weight Change: -0.6 g
[4]; [13]
  Median Survival Time: 14.0 days
[4]; [14]
  T/C: 138%
  Weight Change: -2.2 g
[4]; [15]
  Median Survival Time: 14.2 days
[4]; [16]
  T/C: 157%
  Weight Change: -0.5 g
[4]; [17]
  Median Survival Time: 16.0 days
[4]; [18]
  Weight Change: -3.4 g
[4]; [19]
  T/C: 176%
  Weight Change: -1.7 g
[4]; [20]
  Median Survival Time: 18.0 days
[4]; [22]
  T/C: 199%
  Weight Change: -3.8 g
[4]; [23]
  Median Survival Time: 20.3 days
[4]
  Activity in vivo against P388 leukemia in mice: active
[5]; [28]
  ID50 Toxicity-Vero cells: 12 µg/mL
[6]; [29]
  ID50 Toxicity-ML cells: < 1.5 µg/mL
[7]; [30]
  ID50 Antiviral-cox virus: < 1.5 µg/mL
[8]
  Solubility in organic solvents: soluble
  Solubility in toluene: sparingly soluble
  Solubility in water: insoluble
[9]; [31]
  ID50 Antiviral-ER virus: < 1.5 µg/mL

## didemnin C
[1]
  ID50 Antiviral-HSV-1 virus: < 1.5
  Ratio (cytotoxic concentration ÷ antiviral concentration), HSV-1 virus: > 33
[2]
  ID50 Antiviral-HSV-2 virus: < 1.5
  Ratio (cytotoxic concentration ÷ antiviral concentration), HSV-2 virus: > 33
[5]
  ID50 Toxicity-Vero cells: 50
[6]
  ID50 Toxicity-ML cells: 6
[7]
  ID50 Antiviral-cox virus: < 1.5
  Ratio (cytotoxic concentration ÷ antiviral concentration), cox virus: > 4
[9]
  ID50 Antiviral-ER virus: < 1.5
  Ratio (cytotoxic concentration ÷ antiviral concentration), ER virus: > 4
